Reference: ChEMBL document CHEMBL4190387 (Bioorg Med Chem Lett, 2018)

Legend:
physchem = conditions: buffer, pH 6.5
in vitro = conditions: human, cryopreserved hepatocytes

chromatographic logD (physchem)	hepatocyte CLint at 1.5 h, 1 µM (in vitro) [µL/min/1e6 cells]	Compound
1.9	11	CCN(CC)c1ccc(-c2cc(-c3ccc(C(=O)O)cc3)ccc2OCCCO)cc1
3.5	72	CC(C)(C)c1cc(-c2cc(-c3ccc(C(=O)O)cc3)ccc2OCCO)ccc1N1CCCC1 [TRIFAROTENE]
2.8	22	O=C(O)c1ccc(-c2ccc(OCCCCO)c(-c3ccc(N4CCCC4)c(C(F)(F)F)c3)c2)cc1

Compound	chromatographic logD (physchem)	hepatocyte CLint at 1.5 h, 1 µM (in vitro) [µL/min/1e6 cells]
CCN(CC)c1ccc(-c2cc(-c3ccc(C(=O)O)cc3)ccc2OCCCCO)cc1C(C)(C)C	4.3	33
